“And” between values parts separate entries of the source, which are not always exact repeats. Equal values may be shown once.
Tested on: Swiss mice, Sarcoma 180 sc, mean tumor weight T/C
Experiment: NCI In Vivo Anticancer Drug Screen. Data for tumor model Sarcoma 180 (subcutaneous) in Swiss mice
Settings: endpoint: mean tumor weight, higher = larger tumour
How it was run: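 Transplantable tumors were established in mice, compound was given, then survival or tumor size was recorded. The treated value was divided by the vehicle-control value.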

SMILES: CN(C)/N=N/c1nc[nH]c1C(N)=O
- T/C (dose: 11.0 mg/kg/injection, schedule: Q01DX007 (ip), vehicle: saline): 58 % of control
- T/C (dose: 12.5 mg/kg/injection, schedule: Q#A X014 (ip), vehicle: methylcellulose (MC)): 68 % of control
- T/C (dose: 20.0 mg/kg/injection, schedule: Q01DX007 (ip), vehicle: carboxymethylcellulose (CMC)): 89 % of control
- T/C (dose: 22.0 mg/kg/injection, schedule: Q01DX007 (ip), vehicle: saline): 62 % of control
- T/C (dose: 25.0 mg/kg/injection, schedule: Q#A X014 (ip), vehicle: methylcellulose (MC)): 43 % of control
- T/C (dose: 40.0 mg/kg/injection, schedule: Q01DX007 (ip), vehicle: carboxymethylcellulose (CMC)): 62 % of control
- T/C (dose: 44.0 mg/kg/injection, schedule: Q01DX007 (ip), vehicle: carboxymethylcellulose (CMC)): 23 % of control and 43 % of control
- T/C (dose: 50.0 mg/kg/injection, schedule: Q#A X014 (ip), vehicle: methylcellulose (MC)): 29 % of control
- T/C (dose: 66.0 mg/kg/injection, schedule: Q01DX007 (ip), vehicle: carboxymethylcellulose (CMC)): 28 % of control and 53 % of control
- T/C (dose: 100.0 mg/kg/injection, schedule: Q01DX007 (ip), vehicle: carboxymethylcellulose (CMC)): 28 % of control and 29 % of control
- T/C (dose: 150.0 mg/kg/injection, schedule: Q01DX007 (ip), vehicle: carboxymethylcellulose (CMC)): 19 % of control and 23 % of control
- T/C (dose: 160.0 mg/kg/injection, schedule: Q01DX007 (ip), vehicle: carboxymethylcellulose (CMC)): 51 % of control and 73 % of control
- T/C (dose: 225.0 mg/kg/injection, schedule: Q01DX007 (ip), vehicle: carboxymethylcellulose (CMC)): 21 % of control
- T/C (dose: 320.0 mg/kg/injection, schedule: Q01DX007 (ip), vehicle: carboxymethylcellulose (CMC)): 39 % of control and 45 % of control
- T/C (dose: 640.0 mg/kg/injection, schedule: Q01DX007 (ip), vehicle: carboxymethylcellulose (CMC)): 25 % of control

SMILES: CO[C@H]1CC[C@@]2(C)C(=CC[C@@H]3[C@@H]2CC[C@]2(C)C(=O)C(=O)C[C@@H]32)C1
- T/C (dose: 22.0 mg/kg/injection, schedule: Q01DX007 (sc), vehicle: steriod suspending solution): 154 % of control
- T/C (dose: 33.0 mg/kg/injection, schedule: Q01DX007 (sc), vehicle: steriod suspending solution): 74 % of control

SMILES: C[C@]12CC[C@H](OC3OC(CO)C(O)C(O)C3O)C[C@H]1CC[C@@H]1[C@@H]2CC[C@]2(C)[C@@H](C3=CCOC3=O)CC[C@]12O (some centres not stated)
- T/C (dose: 0.01 mg/kg/injection, schedule: Q01DX007 (ip), vehicle: carboxymethylcellulose (CMC)): 60 % of control
- T/C (dose: 0.05 mg/kg/injection, schedule: Q01DX007 (ip), vehicle: carboxymethylcellulose (CMC)): 40 % of control
- T/C (dose: 0.12 mg/kg/injection, schedule: Q03DX003 (ip), vehicle: carboxymethylcellulose (CMC)): 81 % of control
- T/C (dose: 0.12 mg/kg/injection, schedule: Q#A X014 (ip), vehicle: carboxymethylcellulose (CMC)): 99 % of control
- T/C (dose: 0.2 mg/kg/injection, schedule: Q01DX007 (ip), vehicle: carboxymethylcellulose (CMC)): 46 % of control
- T/C (dose: 0.25 mg/kg/injection, schedule: Q01DX007 (ip), vehicle: saline): 82 % of control
- T/C (dose: 0.25 mg/kg/injection, schedule: Q01DX007 (ip), vehicle: water): 86 % of control
- T/C (dose: 0.25 mg/kg/injection, schedule: Q03DX003 (ip), vehicle: carboxymethylcellulose (CMC)): 75 % of control
- T/C (dose: 0.25 mg/kg/injection, schedule: Q#A X014 (ip), vehicle: carboxymethylcellulose (CMC)): 57 % of control
- T/C (dose: 0.26 mg/kg/injection, schedule: Q01DX007 (ip), vehicle: saline): 49 % of control and 51 % of control
- T/C (dose: 0.38 mg/kg/injection, schedule: Q03DX003 (ip), vehicle: carboxymethylcellulose (CMC)): 105 % of control and 108 % of control
- T/C (dose: 0.5 mg/kg/injection, schedule: Q01DX007 (ip), vehicle: saline): 55 % of control
- T/C (dose: 0.5 mg/kg/injection, schedule: Q01DX007 (ip), vehicle: water): 90 % of control
- T/C (dose: 0.5 mg/kg/injection, schedule: Q03DX003 (ip), vehicle: carboxymethylcellulose (CMC)): 92 % of control
- T/C (dose: 0.5 mg/kg/injection, schedule: Q#A X014 (ip), vehicle: carboxymethylcellulose (CMC)): 53 % of control
- T/C (dose: 0.6 mg/kg/injection, schedule: Q01DX007 (ip), vehicle: saline): 34 % of control and 57 % of control
- T/C (dose: 0.8 mg/kg/injection, schedule: Q01DX007 (ip), vehicle: carboxymethylcellulose (CMC)): 27 % of control
- T/C (dose: 0.9 mg/kg/injection, schedule: Q01DX007 (ip), vehicle: saline): 47 % of control and 51 % of control
- T/C (dose: 0.96 mg/kg/injection, schedule: Q01DX007 (ip), vehicle: saline): 13 % of control
- T/C (dose: 1.0 mg/kg/injection, schedule: Q01DX007 (ip), vehicle: carboxymethylcellulose (CMC)): 28 % of control
- T/C (dose: 1.0 mg/kg/injection, schedule: Q01DX007 (ip), vehicle: saline): 40 % of control
- T/C (dose: 1.0 mg/kg/injection, schedule: Q01DX007 (ip), vehicle: water): 40 % of control
- T/C (dose: 1.0 mg/kg/injection, schedule: Q#A X014 (ip), vehicle: carboxymethylcellulose (CMC)): 35 % of control
- T/C (dose: 1.3 mg/kg/injection, schedule: Q01DX007 (ip), vehicle: saline): 32 % of control and 38 % of control
- T/C (dose: 1.9 mg/kg/injection, schedule: Q01DX007 (ip), vehicle: saline): 13 % of control
- T/C (dose: 2.0 mg/kg/injection, schedule: Q01DX007 (ip), vehicle: saline): 22 % of control and 43 % of control
- T/C (dose: 10.4 mg/kg/injection, schedule: Q01DX007 (oral), vehicle: carboxymethylcellulose (CMC)): 89 % of control
- T/C (dose: 16.0 mg/kg/injection, schedule: Q01DX007 (oral), vehicle: carboxymethylcellulose (CMC)): 95 % of control
- T/C (dose: 24.0 mg/kg/injection, schedule: Q01DX007 (oral), vehicle: carboxymethylcellulose (CMC)): 110 % of control
- T/C (dose: 36.0 mg/kg/injection, schedule: Q01DX007 (oral), vehicle: carboxymethylcellulose (CMC)): 74 % of control
- T/C (dose: 54.0 mg/kg/injection, schedule: Q01DX007 (oral), vehicle: carboxymethylcellulose (CMC)): 101 % of control
- T/C (dose: 80.0 mg/kg/injection, schedule: Q01DX007 (oral), vehicle: carboxymethylcellulose (CMC)): 105 % of control
- T/C (dose: 81.0 mg/kg/injection, schedule: Q01DX007 (oral), vehicle: carboxymethylcellulose (CMC)): 100 % of control
- T/C (dose: 120.0 mg/kg/injection, schedule: Q01DX007 (oral), vehicle: carboxymethylcellulose (CMC)): 91 % of control
- T/C (dose: 150.0 mg/kg/injection, schedule: Q01DX007 (oral), vehicle: carboxymethylcellulose (CMC)): 82 % of control
- T/C (dose: 160.0 mg/kg/injection, schedule: Q01DX007 (oral), vehicle: carboxymethylcellulose (CMC)): 85 % of control
- T/C (dose: 300.0 mg/kg/injection, schedule: Q01DX007 (oral), vehicle: carboxymethylcellulose (CMC)): 97 % of control
- T/C (dose: 500.0 mg/kg/injection, schedule: Q01DX007 (oral), vehicle: carboxymethylcellulose (CMC)): 96 % of control
- T/C (dose: 15.0 micrograms/kg/injection, schedule: Q01DX007 (ip), vehicle: saline): 73 % of control and 89 % of control
- T/C (dose: 120.0 micrograms/kg/injection, schedule: Q01DX007 (ip), vehicle: saline): 65 % of control and 77 % of control
- T/C (dose: 125.0 micrograms/kg/injection, schedule: Q01DX007 (ip), vehicle: carboxymethylcellulose (CMC)): 85 % of control and 99 % of control
- T/C (dose: 240.0 micrograms/kg/injection, schedule: Q01DX007 (ip), vehicle: saline): 73 % of control and 84 % of control
- T/C (dose: 250.0 micrograms/kg/injection, schedule: Q01DX007 (ip), vehicle: carboxymethylcellulose (CMC)): 72 % of control and 79 % of control
- T/C (dose: 500.0 micrograms/kg/injection, schedule: Q01DX007 (ip), vehicle: carboxymethylcellulose (CMC)): 47 % of control and 62 % of control
- T/C (dose: 960.0 micrograms/kg/injection, schedule: Q01DX007 (ip), vehicle: saline): 33 % of control
- T/C (dose: 2000.0 micrograms/kg/injection, schedule: Q01DX007 (ip), vehicle: carboxymethylcellulose (CMC)): 68 % of control

SMILES: CCCOc1ccc2c(c1)CC[C@@H]1[C@@H]2CC[C@@]2(C)[C@H]1CC[C@]2(C)O
- T/C (dose: 0.5 mg/kg/injection, schedule: Q#A X014 (sc), vehicle: steriod suspending solution): 110 % of control
- T/C (dose: 5.0 mg/kg/injection, schedule: Q#A X014 (sc), vehicle: steriod suspending solution): 63 % of control
- T/C (dose: 50.0 mg/kg/injection, schedule: Q#A X014 (sc), vehicle: steriod suspending solution): 84 % of control

SMILES: CCCCCCCCCCC(O)CN1CCN(c2ccc(C)cc2)CC1 (configuration not stated)
- T/C (dose: 110.0 mg/kg/injection, schedule: Q01DX007 (ip), vehicle: olive oil, sesame oil, peanut oil): 63 % of control
- T/C (dose: 168.0 mg/kg/injection, schedule: Q01DX007 (ip), vehicle: olive oil, sesame oil, peanut oil): 51 % of control
- T/C (dose: 250.0 mg/kg/injection, schedule: Q01DX007 (ip), vehicle: olive oil, sesame oil, peanut oil): 77 % of control

SMILES: C[C@]12CC[C@H](O)C[C@H]1CC[C@@H]1[C@@H]2CC[C@]2(C)[C@@H](C3=CC(=O)OC3)[C@@H](O)C[C@]12O
- T/C (dose: 3.0 mg/kg/injection, schedule: Q01DX007 (sc), vehicle: steriod suspending solution): 78 % of control
- T/C (dose: 10.0 mg/kg/injection, schedule: Q01DX007 (sc), vehicle: steriod suspending solution): 64 % of control
- T/C (dose: 25.0 mg/kg/injection, schedule: Q01DX007 (sc), vehicle: steriod suspending solution): 50 % of control
- T/C (dose: 50.0 mg/kg/injection, schedule: Q01DX007 (sc), vehicle: steriod suspending solution): 70 % of control

SMILES: CCc1nc(N)nc(N)c1-c1ccc(Cl)cc1
- T/C (dose: 6.25 mg/kg/injection, schedule: Q01DX007 (ip), vehicle: carboxymethylcellulose (CMC)): 114 % of control
- T/C (dose: 12.5 mg/kg/injection, schedule: Q01DX007 (ip), vehicle: carboxymethylcellulose (CMC)): 88 % of control
- T/C (dose: 25.0 mg/kg/injection, schedule: Q01DX007 (ip), vehicle: carboxymethylcellulose (CMC)): 114 % of control
- T/C (dose: 50.0 mg/kg/injection, schedule: Q01DX007 (ip), vehicle: carboxymethylcellulose (CMC)): 77 % of control
